The test system of one assay is MCF-7-PR. The experiment in a line: Cell viability in palbociclib-resistant cell line. Format: cell-based. To be noted: Table 5; palbociclib-resistant cell line. As to the method:
(§1) Cells were treated with test compounds at 7 to 9 concentrations within a desired concentration range (e.g. 1.1 nM-10 μM) on day 2 by series diluting the test compound stock solution (10 mM in DMSO) with culture medium. Treatment duration was 144H (with a medium change at 72H) for both MCF-7 and DU4475 cells. Cell viability was assessed by Cell Titer-Glo® as recommended by Promega (Cat. No.: G7572), or by resazurin assay (Sigma Aldrich, Cat. No.: R7017) post treatment.
(§2) Cell viability data were plotted using GraphPad Prism (GraphPad Software, Inc., San Diego, Calif.). In addition, a nonlinear regression model with a sigmoidal dose response and variable slope within GraphPad Prism was used to calculate the IC50 value of individual test compounds.
The effects of test compound in a palbociclib-resistant cell line and a parental, non-resistant cell line were compared. The palbociclib-resistant cell line (“MCF-7-PR”) was derived from the parental, non-resistant cell line (MCF-7 breast adenocarcinoma cells) by culture of cells over a period of three months in increasing concentrations of palbociclib, starting from about 350 nM and ending at about 850 nM, the final concentration at which they were then maintained in culture. […]

The target of the next assay is T1, CDK2 (cyclin A) (Homo sapiens, UniProt P24941).
T1 construct: purchased Invitrogen Life Technologies (screening service)
The experiment in a line: Z'-LYTE kinase assay. Format: biochemical. To be noted: ATP 31 μM, 60 minutes. As to the method:
IC50 values of compounds against CDK2 (cyclin A) were determined by Z′-LYTE™. These screening assays were performed at Invitrogen Life Technologies (Grand Island, N.Y.) on a low volume NBS, black 384-well plate (#4514. Corning), 0.1 μL of 100× test compound in 100% DMSO (at specific solutions) was mixed with 2.4 μL of Kinase Buffer (50 mM HEPES pH 7.5, 0.01% BRIJ-35, 10 mM MgCl2, 1 mM EGTA), 5 μL of 2× Kinase (1.22-10.3 ng CDK2/cyclin A)/Peptide (2 μM Ser/Thr 12), and 2.5 μL of 4×ATP solution (31 μM). The plates were shaken for 30 seconds, and incubated for 60 minutes at room temperature. Development Reagent Solution (5 μL of 1:1024 dilution) was added to the plates followed with another 30-second plate shake and the plates were further incubated at room temperature for one hour. The plates were read on fluorescence plate reader with Dual emission at 445 nm and 520 nm.
(§3) The following equations were used for Z′-LYTE™ Screening Assay Data Analysis. Percent inhibition (100-% activity) was fitted to the “four-parameter logistic model” in XLfit for determination of IC50 values.

In a further assay the target is T2, CDK6 (Homo sapiens, UniProt Q00534).
T2 construct: purchased Invitrogen PR8422B
The experiment in a line: In vitro kinase inhibition, luminescence (ADP-Glo) with retinoblastoma as substrate. In kind it is biochemical. To be noted: ATP 25 μM, 2H at room temperature. As to the method: (§4) IC50 values of compounds against CDK4 and CDK6 were determined by luminescence using retinoblastoma as substrate. Kinase assays were performed in kinase buffer (#PV6135, Invitrogen, Life Technologies Grand Island. N.Y.) where total reaction volume was […] in 96-well half area white plates (#3693, Costar). One microliter of 25× test compounds at specific concentrations (e.g., final concentration range: 0.1 nM-200 nM) was mixed with 10 μL of 2.5× kinase (5 nM, CDK4 #PR8064 A and CDK6 #PR8422B, Invitrogen) solution and 14 μL of 4× mixed solution with retinoblastoma (1 μM, #12-439, EMD Millipore. Hayward, Calif.) and ATP (25 μM, #V7038, Promega, Madison, Wis.). The plates were covered and incubated for 2H at room temperature. At the end of incubation, 25 μL of stop solution—ADP Glo reagent (#V7002. Promega) was added. After incubation for 45 min at room temperature, 50 μL of detection reagent (##V7002, Promega) was added. Readings were taken at 15 min and 45 min incubation after detection reagent was added in a Synergy Neo Plate reader (BioTek, Winooski, Vt.) at single excitation of 340 nm and Dual emission at 495 nm and 520 nm respectively. The following equations were used in the CDK4 and CDK6 assay data analysis. Percent inhibition (100-% activity) was fitted to the “four-parameter logistic model” in XLfit for determination of IC50 values.
(§5) Percent conversion of enzyme=100−{(RLUNo Drug−No enzyme*100)/RLUNo drug+Enzyme} Equation 1:
(§6) Percent conversion at each data point=100−{(RLUAverage(Drug+enzyme)*100)/RLUNo drug+Enzyme} Equation 2:
(§7) Percent Inhibition=100*(% Conversioneach data point/% ConversionEnzyme) Equation 3: […]
(ADP-Glo first removes unused ATP, then detects ADP through luciferase.)

Another assay deals with T3, CDK4 (Homo sapiens, UniProt P11802).
T3 construct: purchased Invitrogen PR8064 A
The description is as above. Format: biochemical. To be noted: ATP 25 μM, 2H at room temperature. On the procedure:
as §4, §5, §6, §7

The next assay concerns the target T4, CDK1 (cyclin B) (Homo sapiens, UniProt P06493).
T4 construct: purchased Invitrogen Life Technologies (screening service)
The experiment in a line: Z'-LYTE kinase assay. In kind it is biochemical. To be noted: ATP 34 μM, 60 minutes. As to the method: IC50 values of compounds against CDK1 (cyclin B) were determined by Z′-LYTE™. These screening assays were performed at Invitrogen Life Technologies (Grand Island, N.Y.) on a low volume NBS, black 384-well plate (#4514, Corning), 0.1 μL of 100× test compound in 100% DMSO (at specific solutions) was mixed with 2.4 μL of Kinase Buffer (50 mM HEPES pH 7.5, 0.01% BRIJ-35, 10 mM MgCl2, 1 mM EGTA), 5 μL of 2× Kinase (3.5-46.4 ng CDK1/cyclin B)/Peptide (2 μM Ser/Thr 18), and 2.5 μL of 4×ATP solution (34 μM). The plates were shaken for 30 seconds, and incubated for 60 minutes at room temperature. Development Reagent Solution (5 μL of 1:1024 dilution) was added to the plates followed with another 30-second plate shake, and the plates were further incubated at room temperature for one hour. The plates were read on fluorescence plate reader with Dual emission at 445 nm and 520 nm.
as §3

Another assay relates to DU4475. The experiment in a line: Cancer cell proliferation assay as a single agent (cell viability). Format: cell-based. To be noted: Homo sapiens, DU-4475; Table 4; Rb negative breast carcinoma; 144H treatment. As to the method: (§8) The effects of test compounds were studied in two breast cancer cell lines of different subtype. The cancer cells (Table 3) were harvested during the logarithmic growth period and counted. Cell concentrations were adjusted to the appropriate number with respective medium and 90 μL cell suspensions were added to 96-well plates. After cells were seeded, the plates were shaken gently to distribute cells evenly and incubated at 37° C., 5% CO2 on day 1.
as §1, §2

The next assay concerns MCF-7. Described as above. To be noted: Homo sapiens, MCF7. Format: cell-based. On the procedure: as §8, §1, §2

Here are results for one compound from patent US20220347187A1, “HETEROCYCLIC COMPOUNDS AS KINASE INHIBITORS” (Nuvation Bio Inc., priority 2019, published 2022).

Structures are written as SMILES.

T4 sequence (P06493 whole entry): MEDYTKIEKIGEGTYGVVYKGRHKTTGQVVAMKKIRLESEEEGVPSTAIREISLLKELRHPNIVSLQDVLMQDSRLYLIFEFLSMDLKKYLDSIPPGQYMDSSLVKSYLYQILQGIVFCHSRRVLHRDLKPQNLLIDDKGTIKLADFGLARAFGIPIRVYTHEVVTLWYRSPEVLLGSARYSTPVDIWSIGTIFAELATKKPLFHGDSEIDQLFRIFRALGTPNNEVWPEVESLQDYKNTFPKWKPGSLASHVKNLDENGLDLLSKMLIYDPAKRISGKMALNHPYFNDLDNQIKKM
T4 sequence (P14635 whole entry partner): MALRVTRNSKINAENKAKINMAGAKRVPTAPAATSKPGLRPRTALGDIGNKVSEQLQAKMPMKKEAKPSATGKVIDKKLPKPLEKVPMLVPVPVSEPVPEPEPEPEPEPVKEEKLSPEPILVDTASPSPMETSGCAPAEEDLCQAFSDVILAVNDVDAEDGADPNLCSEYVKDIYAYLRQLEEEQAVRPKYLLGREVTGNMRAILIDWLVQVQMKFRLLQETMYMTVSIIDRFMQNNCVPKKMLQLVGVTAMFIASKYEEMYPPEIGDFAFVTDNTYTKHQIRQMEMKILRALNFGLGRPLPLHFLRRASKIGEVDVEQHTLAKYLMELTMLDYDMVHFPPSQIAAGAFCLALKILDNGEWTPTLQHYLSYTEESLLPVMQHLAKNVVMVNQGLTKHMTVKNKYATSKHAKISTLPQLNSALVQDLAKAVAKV
T3 sequence (P11802 whole entry): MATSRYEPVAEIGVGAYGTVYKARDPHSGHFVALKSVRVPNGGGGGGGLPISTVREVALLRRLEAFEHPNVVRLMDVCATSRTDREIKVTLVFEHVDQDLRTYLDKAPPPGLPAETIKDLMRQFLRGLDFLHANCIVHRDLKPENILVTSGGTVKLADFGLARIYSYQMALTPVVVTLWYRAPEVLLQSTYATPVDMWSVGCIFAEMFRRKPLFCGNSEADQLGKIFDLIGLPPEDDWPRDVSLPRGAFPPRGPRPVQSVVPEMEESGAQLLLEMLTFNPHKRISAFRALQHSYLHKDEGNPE
T3 sequence (P24385 whole entry partner): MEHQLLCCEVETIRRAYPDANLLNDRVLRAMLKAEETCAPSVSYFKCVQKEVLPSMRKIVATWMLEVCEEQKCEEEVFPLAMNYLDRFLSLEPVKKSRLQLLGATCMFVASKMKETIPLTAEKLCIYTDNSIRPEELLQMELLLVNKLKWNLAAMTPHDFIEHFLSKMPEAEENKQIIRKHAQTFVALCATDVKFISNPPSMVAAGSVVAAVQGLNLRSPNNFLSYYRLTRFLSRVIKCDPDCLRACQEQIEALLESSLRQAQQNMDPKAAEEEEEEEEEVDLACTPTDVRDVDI
T2 sequence (Q00534 whole entry): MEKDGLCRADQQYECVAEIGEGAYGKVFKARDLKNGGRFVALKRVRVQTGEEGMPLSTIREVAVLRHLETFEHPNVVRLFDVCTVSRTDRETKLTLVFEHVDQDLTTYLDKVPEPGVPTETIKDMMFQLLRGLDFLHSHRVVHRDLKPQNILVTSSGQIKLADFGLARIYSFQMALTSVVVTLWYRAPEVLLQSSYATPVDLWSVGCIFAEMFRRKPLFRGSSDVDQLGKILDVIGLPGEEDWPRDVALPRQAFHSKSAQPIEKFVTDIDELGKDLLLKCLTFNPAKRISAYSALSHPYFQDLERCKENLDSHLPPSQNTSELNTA
T2 sequence (P24385 whole entry partner): as the sequence (P24385 whole entry partner) above

One may read the IC50 as the concentration that gives 50% inhibition. In the case of `Cc1nn(C2CCNCC2)cc1Nc1ncc(F)c(-c2cc(F)c3c(c2)N(C(C)C)CCO3)n1` [Compound 67, 5-fluoro-4-(8-fluoro-4-isopropyl-3,4-dihydro-2H-benzo[b][1,4]oxazin-6-yl)-N-(3-methyl-1-(piperidin-4-yl)-1H-pyrazol-4-yl)pyrimidin-2-amine], the IC50 in the assay on MCF-7-PR amounted to 0.072 µM; at CDK2 (cyclin A), 0.045 µM; on CDK6, 0.045 µM; at CDK4 it was 0.016 µM; against CDK1 (cyclin B) it was 0.094 µM; in the assay on DU4475, 0.13 µM. The IC50 in the assay on MCF-7 (Table 4, Rb positive breast adenocarcinoma, 144H treatment) stood at 0.08 µM; with MCF-7 (Table 5, parental, non-resistant cell line), 0.04 µM.
